Results on one compound are retold here after PMC9611166, “Cocrystal Prediction of Bexarotene by Graph Convolution Network and Bioavailability Improvement” (Pharmaceutics, 2022).

The nature of data set [1]: Equilibrium solubility in buffer solutions with 0.05% CTAB. The format is physicochemical. As to conditions: for solubility thermodynamic at 1 day: buffer solution with 0.05% CTAB, aqueous with cosolvent or surfactant or cyclodextrin, thermodynamic from solid, 0.05% CTAB, 37 °C, one day. On the procedure: (§1) The concentration of BEX samples was detected by the Agilent 1260 Series Infinite HPLC. The Eclipse XDB-C18 column (4.6 × 150 mm, 5 μm) was used to separate the analytes. The column temperature was set at 30 °C and the injection volume was 10 μL. The mobile phase was composed of 0.1% trifluoroacetic acid in water and acetonitrile (10:90, v/v) pumped at 1.0 mL/min. The 260 nm was set as the UV-vis detection wavelength.
Excess amounts (10 mg) of BEX and four cocrystals samples were added to the 4 mL of pH 2.0, 4.5, and 6.8 buffer solutions respectively, with the presence of 0.05% CTAB (hexadecyl trimethyl ammonium bromide). Then the saturated solutions were stirred at 300 rpm for one day at 37 °C. The equilibrium solubility of BEX was determined by HPLC after filtering the solutions.

A short description of data set [2]: Powder dissolution at pH 6.8 with 0.05% CTAB. The format is physicochemical. On the procedure:
as §1
The solid samples of BEX and four cocrystals were sieved through 100-mesh sieves. In total, 20 mg of BEX and corresponding cocrystal powders (n = 3) were added to pH 6.8 phosphate buffer with the presence of 0.05% CTAB at 37 °C, rotating at 100 rpm. The samples were collected at 5, 10, 15, 20, 30, 40, 50, and 60 min. The concentration was measured by HPLC.

The nature of a further data set: Pharmacokinetics in rats. The format is in vivo. As to conditions: male, Sprague-Dawley, rat, plasma, po, 10 mg/kg BEX, 0.5% CMC-Na suspension, mean ± SD. On the procedure:
The PK studies were performed according to the Guide for Care and Use of Laboratory Animals and were approved by the Institutional Animal Care and Use Committee of Shanghai Institute of Materia Medica. There were two groups of male Sprague−Dawley rats and the number of rats is six in each group. […] The dose is 10 mg/kg BEX. The animals had free access to water and fasted overnight before dosing. After the administration, the 600 μL blood sample was collected at 0.5, 1, 2, 3, 4, 6, and 8 h. Plasma was separated by centrifugation (14,000 rpm, 10 min) and stored at −80 °C. In total, 200 μL of rat plasma sample was mixed with 600 μL acetonitrile through a vortex mixer for 20 min and centrifuged for 5 min (14,000 rpm). The BEX concentration was measured by the SCIEX Triple Quad™ 4500 LC-MS instrument. The analytes were separated by the Supelco Ascentis Express C18 column (2.1 × 50 mm, 2.7 μm). The column temperature was set at 35 °C. The mobile phase was composed of 0.2% formic acid in water (solvent A) and acetonitrile (solvent B) pumped at 0.6 mL/min. The gradient elution program started with 55% B and increased linearly to 90% B at 1.5 min and held for 0.5 min. It returned to the 55% B at the 3 min and held for 2 min. The injection volume was 10 μL, and the UV-vis detection wavelength was set at 260 nm. The negative ion detection mode was operated in the mass spectrometer. Multiple reaction monitoring modes (MRM) was used to perform the detection and quantification, with m/z 347.3→303.0 for BEX. The DAS 2.0 program was used to perform the PK analysis.

On the set-up of data set [3]: method as in PMID 24333772. As to conditions: cited from earlier work.

Values after ≈ are worked out from the molar mass of the structure shown.

The solubility (thermodynamic) is the concentration in solution at equilibrium with solid. Usually solubility stands for how much of the substance goes into solution per volume. As usually defined, the AUC(0-inf) is the area under the concentration-time curve extrapolated to infinity. Low values mean less exposure, high ones more exposure. A word on the Cmax: it is the peak of the concentration-time curve. For orientation: half-life means the time needed for the level to fall by half in the phase considered. Consider `C=C(c1ccc(C(=O)O)cc1)c1cc2c(cc1C)C(C)(C)CCC2(C)C` [BEX, Bexarotene], for which the values for the thermodynamic solubility at 1 day in data set [1] (pH 2.0 buffer), in data set [1] (pH 4.5 buffer) and in data set [1] (pH 6.8 buffer) were below 10 µg/mL, above 10 µg/mL and around 30 µg/mL (≈ 86.1 µM), respectively. Also, the “pH value of solution after equilibrium solubility experiment” value in data set [1] (starting buffer pH 2.00, n = 3) amounted to 2.06 ± 0.01; in data set [1] (starting buffer pH 4.50, n = 3), 4.58 ± 0.01; in data set [1] (starting buffer pH 6.80, n = 3), 6.82 ± 0.02. In data set [2] (pH 6.8, n = 3), the “pH value of solution after powder dissolution” value is recorded as 6.81 ± 0.01. Moreover, the solubility at 60 min in data set [2] (phosphate buffer with 0.05% CTAB, aqueous with cosolvent or surfactant or cyclodextrin, thermodynamic from solid, pH 6.8 phosphate buffer, 0.05% CTAB, 37 °C, 60 min, read-out: measured solubility in powder dissolution after 60 min) was around 30 µg/mL (≈ 86.1 µM). Further, the AUC(0-inf) in the data set “Pharmacokinetics in rats” came out at 8790 ± 1080 ng·h/mL. In “Pharmacokinetics in rats”, this compound displayed a Cmax of 1680 ± 559 ng/mL. Besides, in “Pharmacokinetics in rats”, the half-life was 2.98 ± 1.18 h. The AUC(0-t) in the data set “Pharmacokinetics in rats” (read-out: AUC0−8h) worked out at 7220 ± 811 ng·h/mL. Also, the absolute bioavailability entry in data set [3] is recorded as “less than 20%”.
